The source of these data is patent US20150361063A1, “TREATMENT OF AMYLOIDOSIS BY COMPOUNDS THAT REGULATE RETROMER STABILIZATION” (Brandeis University, priority 2011, published 2015).

For data set [1], the system named is mice. The conditions noted are these: up to 30 mg/kg; cited from earlier work.
For data set [2], the system named is animal models for cancer. As to conditions: three different animal models for cancer; cited from earlier work.
Data set [3] concerns the target T1, intact retromer complex (Homo sapiens, UniProt Q96QK1+Q9UBQ0).
T1 construct: made in house
In words: fluorescence thermal stability assay with reconstituted retromer. Format: binding. The text has this:
We set out to screen and identify compounds that stabilized the active retromer complex, thereby preventing VPS35 degradation and increasing the steady-state level of the complex, which may reduce toxic Abeta. To cast our net wider, we set out to perform virtual screening by docking first, and we were able to do that because crystal structures of several retromer components and, more importantly, the VPS35-VPS29 binary complex, had been published. […] After two years of trial and error in overcoming technical obstacles, we finally succeeded in expressing and purifying each of the individual retromer components separately, and then reconstituting the complete complex in vitro.
We then obtained tested, in a real fluorescence stability assay using our reconstituted retromer, a total of about 50 compounds from our list of the 200 “top hits” in the docking run. It should be noted that there are a total of 7 sites that were identified from the computational surface mapping approach, and we considered anything with a G-score below −7.00 to be in the “top hits”. Four of the sites contained almost all the top hits, so compounds were actually assayed only if they were in the top 200 by G-score and were predicted to bind well to one of these four sites.

Each structure is given as a SMILES string.

As to `N=C(N)SCc1ccc(CSC(=N)N)s1` [compound 55712, [5-(carbamimidoylsulfanylmethyl)thiophen-2-yl]methyl carbamimidothioate], the toxicity to mice entry in data set [1] is “not toxic”. Also, the antitumor activity result in data set [2] is “no antitumor activity”. In addition, in data set [3] (compounds from top docking hits of site 2 (VPS35-VPS29 interface)), the “hit in actual experimental assays” value was “positive hits”. For the same molecule, the “stabilization of the intact retromer complex (thermal stability)” value in data set [3] (increase in thermal stability, reconstituted retromer, FIG. 1) is 10 degrees Celsius.
